# Assay results reported in patent US20260092074A1, “Annelated Pyridines as Steroidogenesis Inhibitors, Preparation Method and Use Thereof” (Guangzhou Vinnocent Pharmaceutical Limited, priority 2022, published 2026).
# Key:
# [1] = target: T1, human CYP11B1 (Homo sapiens, UniProt P15538); experiment: Inhibition of hCYP11B1 in transfected V79 cells; type: cell-based; details: hamster V79 cells expressing human CYP11B1; substrate 11-deoxycortisol 200 nM
# T1 construct: expressed in transfected cells
# T1 sequence (P15538 25-503): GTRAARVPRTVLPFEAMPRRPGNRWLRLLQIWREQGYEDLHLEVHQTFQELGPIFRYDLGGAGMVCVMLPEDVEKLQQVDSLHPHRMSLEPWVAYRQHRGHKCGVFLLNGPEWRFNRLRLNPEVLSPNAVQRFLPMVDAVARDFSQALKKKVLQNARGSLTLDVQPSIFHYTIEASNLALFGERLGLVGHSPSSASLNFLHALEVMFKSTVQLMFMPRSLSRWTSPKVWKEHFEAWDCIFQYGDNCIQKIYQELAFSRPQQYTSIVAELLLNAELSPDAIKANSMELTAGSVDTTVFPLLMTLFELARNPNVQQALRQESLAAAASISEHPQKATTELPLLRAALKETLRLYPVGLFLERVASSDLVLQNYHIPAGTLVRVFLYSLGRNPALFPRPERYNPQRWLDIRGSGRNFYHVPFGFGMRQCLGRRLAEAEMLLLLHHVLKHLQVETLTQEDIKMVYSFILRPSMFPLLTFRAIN
# Outline: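 Reactions started with 200 nM 11-deoxycortisol, ran for 30 min and were stopped with ethyl acetate, after a 2 h compound preincubation. The host was stably transfected V79 hamster cells carrying human CYP11B1 plus rat P450 reductase. Percent inhibition, from LC-MS/MS or HPLC (260 nm) quantitation of substrate and product, gave the IC50.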
# [2] = target: T2, human CYP11B2 (Homo sapiens, UniProt P19099); experiment: Inhibition of hCYP11B2 in transfected V79 cells; type: cell-based; details: hamster V79 cells expressing human CYP11B2; substrate 11-deoxycorticosterone 200 nM
# T2 construct: expressed in transfected cells
# T2 sequence (P19099 25-503): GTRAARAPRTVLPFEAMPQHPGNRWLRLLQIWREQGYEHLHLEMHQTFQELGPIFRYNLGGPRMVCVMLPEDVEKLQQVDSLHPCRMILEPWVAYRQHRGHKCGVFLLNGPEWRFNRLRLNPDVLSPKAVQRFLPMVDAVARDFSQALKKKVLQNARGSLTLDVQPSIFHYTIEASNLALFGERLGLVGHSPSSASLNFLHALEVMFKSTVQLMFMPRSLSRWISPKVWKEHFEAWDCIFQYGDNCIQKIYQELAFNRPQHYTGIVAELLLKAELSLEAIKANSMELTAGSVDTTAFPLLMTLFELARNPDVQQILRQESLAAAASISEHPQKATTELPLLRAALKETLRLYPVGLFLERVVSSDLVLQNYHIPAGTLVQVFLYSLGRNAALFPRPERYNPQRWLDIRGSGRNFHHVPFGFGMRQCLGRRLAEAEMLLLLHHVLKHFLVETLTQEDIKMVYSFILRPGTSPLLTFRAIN
# Outline: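 The substrate (200 nM, 30 min) was added after a 2 hour compound pre-incubation in lentivirus-transduced V79 cells stably expressing human CYP11B2 plus rat NADPH-P450 reductase.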
Structure (SMILES),IC50 [1],IC50 [2]
"N#Cc1ccc(-c2cncc3c2ccn3S(=O)(=O)c2cccs2)cc1 [E17, 4-(1-(Thiophen-2-ylsulfonyl)-1H-pyrrolo[2,3-c]pyridin-4-yl)benzonitrile]",0.7 nM,0.1 nM
"N#Cc1ccc(-c2cncc3c2OCCN3S(=O)(=O)C2CN(S(=O)(=O)c3ccc(C#N)cc3)C2)cc1 [O114, 4-((3-((8-(4-Cyanophenyl)-2,3-dihydro-4H-pyrido[4,3-b][1,4]oxazin-4-yl)sulfonyl)azetidin-1-yl)sulfonyl)benzonitrile]",69 nM,7 nM
"N#Cc1ccc(-c2cncc3c2ccn3C(=O)c2ccccc2I)cc1 [E21, 4-(1-(2-iodobenzoyl)-1H-pyrrolo[2,3-c]pyridin-4-yl)benzonitrile]",5 nM,4 nM
"N#Cc1ccc(-c2cncc3c2OCCN3C(=O)C2CN(c3ccc(C#N)cc3)C2)cc1 [O87, 4-(3-(8-(4-Cyanophenyl)-3,4-dihydro-2H-pyrido[4,3-b][1,4]oxazine-4-carbonyl)azetidin-1-yl)benzonitrile]",55 nM,2.5 nM
"Cc1cccc(S(=O)(=O)N2CCSc3c(-c4ccc(C#N)cc4)cncc32)c1 [S11, 4-(4-(m-Tolylsulfonyl)-3,4-dihydro-2H-pyrido[4,3-b][1,4]thiazin-8-yl)benzonitrile]",2.1 nM,0.15 nM
"N#Cc1ccc(-c2cncc3c2ccn3S(=O)(=O)c2ccc(Cl)nc2)cc1 [E18, 4-(1-((6-Chloropyridin-3-yl)sulfonyl)-1H-pyrrolo[2,3-c]pyridin-4-yl)benzonitrile]",3.8 nM,1.2 nM
"O=C(c1ccccc1F)N1CCc2c(-c3ccc4[nH]ccc4c3)cncc21 [C62, (4-(1H-indol-5-yl)-2,3-dihydro-1H-pyrrolo[2,3-c]pyridin-1-yl)(2-fluorophenyl)methanone]",512 nM,30 nM
"COc1ccc(CCC(=O)N2CCOc3c(-c4ccc(C#N)cc4)cncc32)cc1 [O51, 4-(4-(3-(4-Methoxyphenyl)propanoyl)-3,4-dihydro-2H-pyrido[4,3-b][1,4]oxazin-8-yl)benzo nitrile]",24 nM,0.7 nM
"O=C(C1CN(Cc2cccc(F)c2)C1)N1CCc2c(-c3cc4cc(Cl)ccc4[nH]3)cncc21 [C80, (4-(5-Chloro-1H-indol-2-yl)-2,3-dihydro-1H-pyrrolo[2,3-c]pyridin-1-yl)(1-(3-fluorobenzyl)azetidin-3-yl)methanone]",476 nM,22 nM
"N#Cc1ccc(-c2cncc3c2OCCN3C(=O)Cc2ccc(C(F)(F)F)cc2)cc1 [O45, 4-(4-(2-(4-(Trifluoromethyl)phenyl)acetyl)-3,4-dihydro-2H-pyrido[4,3-b][1,4]oxazin-8-yl)benzonitrile]",614 nM,15.1 nM
"COc1ccc(S(=O)(=O)N2CCSc3c(-c4ccc(F)c(Cl)c4)cncc32)cc1 [S34, 8-(3-chloro-4-fluorophenyl)-4-((4-methoxyphenyl)sulfonyl)-3,4-dihydro-2H-pyrido[4,3-b][1,4]thiazine]",13.4 nM,0.17 nM
"N#Cc1ccc(-c2cncc3c2OCCN3C(=O)N2CC3(CN(Cc4cccc(F)c4)C3)C2)cc1 [O73, 4-(4-(6-(3-Fluorobenzyl)-2,6-diazaspiro[3.3]heptane-2-carbonyl)-3,4-dihydro-2H-pyrido[4,3-b][1,4]oxazin-8-yl)benzonitrile]",3470 nM,45 nM
"O=C(c1ccccc1F)N1CCc2c(-c3cc4ccccc4[nH]3)cncc21 [C59, (4-(1H-indol-2-yl)-2,3-dihydro-1H-pyrrolo[2,3-c]pyridin-1-yl)(2-fluorophenyl)methanone]",2740 nM,131 nM
"N#Cc1ccc(-c2cncc3c2CCN3C(=O)c2cccc(F)c2)cc1 [C28, 4-(1-(3-fluorobenzoyl)-2,3-dihydro-1H-pyrrolo[2,3-c]pyridin-4-yl)benzonitrile]",310 nM,7 nM
"N#Cc1ccc(-c2cncc3c2CCN3C(=O)c2ccc(Cl)cc2)cc1 [C38, 4-(1-(4-Chlorobenzoyl)-2,3-dihydro-1H-pyrrolo[2,3-c]pyridin-4-yl)benzonitrile]",606 nM,40 nM
"N#Cc1ccc(-c2cncc3c2OCCN3S(=O)(=O)c2ccc3ccccc3c2)cc1 [O18, 4-(4-(Naphthalen-2-ylsulfonyl)-3,4-dihydro-2H-pyrido[4,3-b][1,4]oxazin-8-yl)benzonitrile]",0.91 nM,0.2 nM
"N#Cc1ccc(-c2cncc3c2OCCN3S(=O)(=O)C2CN(Cc3cccc(C#N)c3)C2)cc1 [O120, 3-((3-((8-(4-Cyanophenyl)-2,3-dihydro-4H-pyrido[4,3-b][1,4]oxazin-4-yl)sulfonyl)azetidin-1-yl)methyl)benzonitrile]",29 nM,0.3 nM
"N#Cc1ccc(-c2cncc3c2SCCN3S(=O)(=O)c2cccc(Cl)c2)cc1 [S14, 4-(4-((3-Chlorophenyl)sulfonyl)-3,4-dihydro-2H-pyrido[4,3-b][1,4]thiazin-8-yl)benzonitrile]",4.8 nM,0.25 nM
"N#Cc1ccc(-c2cncc3c2OCCN3C(=O)CBr)cc1 [O34, 4-(4-(2-Bromoacetyl)-3,4-dihydro-2H-pyrido[4,3-b][1,4]oxazin-8-yl)benzonitrile]",546 nM,17.4 nM
"N#Cc1ccc(-c2cncc3c2OCCN3C(=O)C2CN(S(=O)(=O)c3ccc([N+](=O)[O-])cc3)C2)cc1 [O62, 4-(4-(1-((4-Nitrophenyl)sulfonyl)azetidine-3-carbonyl)-3,4-dihydro-2H-pyrido[4,3-b][1,4]oxazin-8-yl)benzonitrile]",178 nM,3.3 nM
"N#Cc1ccc(-c2cncc3c2ccn3C(=O)c2c(F)c(F)c(F)c(F)c2F)cc1 [E19, 4-(1-(Perfluorobenzoyl)-1H-pyrrolo[2,3-c]pyridin-4-yl)benzonitrile]",2.9 nM,2.5 nM
"N#Cc1ccc(-c2cncc3c2ccn3S(=O)(=O)c2cccc(Cl)c2)cc1 [E11, 4-(1-((3-Chlorophenyl)sulfonyl)-1H-pyrrolo[2,3-c]pyridin-4-yl)benzonitrile]",0.2 nM,0.1 nM
"N#Cc1ccc(-c2cncc3c2SCCN3S(=O)(=O)c2ccccc2)cc1 [S8, 4-(4-(Phenylsulfonyl)-3,4-dihydro-2H-pyrido[4,3-b][1,4]thiazin-8-yl)benzonitrile]",1.5 nM,0.1 nM
"N#Cc1ccc(S(=O)(=O)N2CCOc3c(-c4cc5cc(Cl)ccc5o4)cncc32)cc1 [O128, 4-((8-(5-Chlorobenzofuran-2-yl)-2,3-dihydro-4H-pyrido[4,3-b][1,4]oxazin-4-yl)sulfonyl)benzonitrile]",256 nM,3.3 nM
"N#CCC(=O)N1CCOc2c(-c3ccc(C#N)cc3)cncc21 [O32, 4-(4-(2-Cyanoacetyl)-3,4-dihydro-2H-pyrido[4,3-b][1,4]oxazin-8-yl)benzonitrile]",785 nM,18 nM
"N#Cc1ccc(-c2cncc3c2OCCN3S(=O)(=O)C2CN(Cc3ccc(F)cc3)C2)cc1 [O123, 4-(4-((1-(4-Fluorobenzyl)azetidin-3-yl)sulfonyl)-3,4-dihydro-2H-pyrido[4,3-b][1,4]oxazin-8-yl)benzonitrile]",26 nM,0.3 nM
"COc1ccc(C(=O)N2CCSc3c(-c4ccc(C#N)cc4)cncc32)cc1 [S97, 4-(4-(4-Methoxybenzoyl)-3,4-dihydro-2H-pyrido[4,3-b][1,4]thiazin-8-yl)benzonitrile]",4210 nM,21 nM
COC(=O)c1ccc(C(=O)N2CCc3c(-c4ccc(C#N)cc4)cncc32)cc1 [C47],19 nM,17 nM
"N#Cc1ccc(S(=O)(=O)N2CCSc3c(-c4cc5ccccc5o4)cncc32)cc1 [S40, 4-((8-(Benzofuran-2-yl)-2,3-dihydro-4H-pyrido[4,3-b][1,4]thiazin-4-yl)sulfonyl)benzonitrile]",657 nM,6.7 nM
"N#Cc1ccc(-c2cncc3c2CCN3C(=O)c2ccccc2[N+](=O)[O-])cc1 [C35, 4-(1-(2-Nitrobenzoyl)-2,3-dihydro-1H-pyrrolo[2,3-c]pyridin-4-yl)benzonitrile]",459 nM,31 nM
